Where two headings read alike, the source gives them in different places.
Key:
[1] = molecular target: PDE4; assay: PDE-Glo phosphodiesterase activity assay, PDE4; type: biochemical, human; conditions: for IC50: 10 mU purified PDE4 per reaction, PDE-Glo assay
Experimental: Compounds 1–14 (Fig. 2) were tested in vitro using PDE-glo phosphodiesterase assay (Promega, Madison, WI). Briefly, all the compounds were diluted in DMSO, and the final concentrations in each assay were 100, 10, 1, 0.1, 0.01, 0.001, 0.0001 µM. For the PDE4 activity assay, 10 mU of purified PDE4D (Millipore) was used per reaction. […] PDE4 = 8 µM.
(§1) For the PDE activity assay, all test compounds were diluted in DMSO with final concentrations in each assay of 100, 10, 1, 0.1, 0.01, 0.001, 0.0001 µM. For the PDE4 activity assay, 10 mU of purified PDE4 (Millipore) was used per reaction. Compounds 6, 7, 9 and 13 (blue underline) were further tested in PDE3, 5, 7, 10 activity assays in which 25 mU of purified enzyme was used per reaction. Summary of compound IC50 in lower right corner. TEXT PRINTED IN THE PICTURE: Compound 6: PDE3: >100uM; PDE4: 90nM; PDE5: 80uM; PDE7: >100uM; PDE10: >100uM | Compound 7: PDE3: >100uM; PDE4: 8uM; PDE5: >100uM; PDE7: >100uM; PDE10: >100uM | Compound 9: PDE3: >100uM; PDE4: 60nM; PDE5: >100uM; PDE7: >100uM; PDE10: >100uM | Compound 13: PDE3: >100uM; PDE4: 10nM; PDE5: 90uM; PDE7: >100uM; PDE10: >100uM
(§2) A PDE activity assay was carried out using the PDE-Glo Phosphodiesterase Assay per manufacturer’s instruction (Promega). Briefly, 5 ul of 1X PDE-Glo Reaction buffer containing 10 mU of purified human recombinant PDE4A4 (Millipore) was added to 96 well plate. All test compounds were dissolved in DMSO and a serial dilution (110) of the inhibitors were performed using 1X PDE-Glo Reaction buffer. 7.5 ul of test compounds were added to the PDE enzyme with the final concentrations in each assay of 100, 10, 1, 0.1, 0.01, 0.001, 0.0001 µM, and incubated at room temperature for 10 min. To initiate the PDE reaction, 12.5 ul of 2 µM cAMP was added to each reaction, mixed well and incubate at room temperature for 10 min. The reactions were terminated using 12.5 ul of PDE-Glo Termination Buffer. 12.5 ul of PDE-Glo Detection Solution containing PDE-Glo Detection Buffer and Protein Kinase A was added to each reaction. The reactions were carried at room temperature for 20 min. 50 ul of Kinase-Glo Reagent was then added to each reaction, mixed well, and incubate for 10 minutes at room temperature. The chemical luminescence signals were measured, quantified and graphed. Compounds 6, 7, 9 and 13 were further tested similarly using 25 mU purified PDE3, 5, 7, 10 (Millipore) enzyme.

[2] = molecular target: PDE3; assay: PDE-Glo phosphodiesterase activity assay, PDE3; type: biochemical; conditions: 25 mU purified enzyme per reaction
Experimental: as §1, §2

[3] = molecular target: T1, PDE5 (Homo sapiens, UniProt O76074); assay: PDE-Glo phosphodiesterase activity assay, PDE5; type: biochemical; conditions: 25 mU purified enzyme per reaction
T1 construct: purchased Millipore
Experimental: as §1, §2

[4] = molecular target: PDE7; assay: PDE-Glo phosphodiesterase activity assay, PDE7; type: biochemical; conditions: 25 mU purified enzyme per reaction
Experimental: as §1, §2

[5] = molecular target: T2, PDE10 (Homo sapiens, UniProt Q9Y233); assay: PDE-Glo phosphodiesterase activity assay, PDE10; type: biochemical; conditions: 25 mU purified enzyme per reaction
T2 construct: purchased Millipore
Experimental: as §1, §2

[6] = tested on: LPS stimulated RAW264.7 cells; assay: TNF secretion in LPS stimulated RAW264.7 cells (ELISA); type: cell-based; conditions: Mus musculus, primed with compound 3 h, LPS 1 ng/ml 8 h, read-out: IC50 TNF secretion, RAW 264.7
Experimental: (§3) Figure 4 Tested compounds reduce TNF secretion in LPS stimulated mouse RAW264.7 and human PBMCs. A. 5×10^5 RAW264.7 cells were seeded in 96 wells for 18 h. Cells were primed with compounds at different concentration for 3 h before treated with LPS (1 ng/ml) for additional 8 h. TNF cytokine releases were monitored by ELISA. B. PBMC (0.2 ml at 1×10^5/ml) were primed with compounds at different concentration for 3 h before treated with LPS (1 ng/ml) for additional 8 h. TNF cytokine releases were monitored by ELISA. % of TNF secretion were calculated and graphed. C. Summary of compound IC50. The data represent n = 3–6 experiments. TEXT PRINTED IN THE PICTURE: (C) C6: RAW 264.7: 400nM; PBMC: 90nM | (C) C7: RAW 264.7: 8uM; PBMC: 10uM | (C) C9: RAW 264.7: 100nM; PBMC: 80nM | (C) C13: RAW 264.7: 70nM; PBMC: 25nM
(§4) 5×10^5 RAW264.7 cells were seeded in 96 wells for 18 h. Cells were primed with compounds at different concentration for 3 h before treated with LPS (1 ng/ml) for additional 8 h. TNF cytokine releases were monitored by ELISA. PBMC (0.2 ml at 1×10^5/ml) were primed with compounds at different concentration for 3 h before treated with LPS (1 ng/ml) for additional 8 h. TNF cytokine releases were monitored by ELISA. % of TNF secretion were calculated and graphed.

[7] = tested on: LPS stimulated PBMC; assay: TNF secretion in LPS stimulated PBMC (ELISA); type: cell-based; conditions: Homo sapiens, primed with compound 3 h, LPS 1 ng/ml 8 h
Experimental: as §3, §4

[8] = tested on: LPS stimulated RAW264.7 and PBMC cells; assay: TNF secretion in LPS stimulated cells, RAW264.7 and PBMC; type: cell-based, mouse; human; conditions: Mus musculus
Experimental: Compound 6, 7, 9 and 13 were also tested in LPS stimulated RAW264.7 (Fig. 4A) and PBMC (Fig. 4B) cells to evaluate their ability to suppress TNF secretion. […] PDE4. […] TNF ranging from 25–75 nM (Fig. 4C).
as §3, §4

[9] = tested on: C57/BL6 mice given LPS (E. coli, 100 µg i.p.); assay: LPS septic shock model; type: in vivo, mouse; conditions: for ID50 IL-6 / inhibitory dose [ID50] TNF: i.p. 10 min before LPS 100 ug i.p., blood 2 h later
Experimental: Mice were euthanized 2 h later using pentobarbital where blood was collected and assayed for IL6 and TNF cytokine levels. […] In a separate experiment, a brief pharmacokinetic study was performed where PDE4 inhibitors (1 mg/kg, i.p.) were given to mice 18 h before LPS administration (E. coli, 100 ug i.p.).
Figure 6 PDE4 inhibitors lessen cytokine storm induced by LPS septic shock. C57/BL6 mice were administered i.p. nothing (CON), vehicle, 10 ug/kg, 100 ug/kg, 1 mg/kg or 10 mg/kg of compounds 6, 7 or 9. Mice were given LPS (E. coli, 100 µg) 10 min later through an i.p. injection. 2 h later mice were euthanized using pentobarbital and blood was collected for IL-6 and TNF measurements. Shown in panel A–B is the % inhibition of cytokine levels as a function of drug dose. The data represent n = 3 mice/group at each dose. C57/BL6 mice were also pretreated with compound 5, 6, 7 or 9 at 1 mg/kg. Mice were given LPS (E. coli, 100 µg) 18 h later through an i.p. injection. 2 h later the mice were euthanized using pentobarbital and blood was collected for IL-6 and TNF measurements (C–D).
Compounds were diluted in PBS and various amounts (0.01, 0.1, 1 and 10 mg/kg) of compounds were administered to mice though an i.p. injection. 10 min later, mice were given 100 µg of LPS (E. coli) through an i.p. injection. 2 h later, mice were euthanized. Plasma was collected and processed for cytokine assays.

[10] = tested on: C57/BL6 mice challenged with H1N1 (A/PR/8/34); assay: H1N1 pneumonia model; type: in vivo, mouse; conditions: 30 µg/ml in drinking water, estimated dose 5 mg/kg/d; for survival of mice infected with H1N1: versus diluent
[11] = tested on: murine models of inflammation; conditions: parenteral and oral application; for severity of tissue injury: in each of the models
[12] = tested on: PDE4; set-up: method as in PMID 15476679; conditions: selective inhibitors of PDE4 isolated from traditional Chinese medicines; cited from earlier work
[13] = RAW264.7, range over both cell types (and over the compounds named)

T2 sequence (Q9Y233 whole entry): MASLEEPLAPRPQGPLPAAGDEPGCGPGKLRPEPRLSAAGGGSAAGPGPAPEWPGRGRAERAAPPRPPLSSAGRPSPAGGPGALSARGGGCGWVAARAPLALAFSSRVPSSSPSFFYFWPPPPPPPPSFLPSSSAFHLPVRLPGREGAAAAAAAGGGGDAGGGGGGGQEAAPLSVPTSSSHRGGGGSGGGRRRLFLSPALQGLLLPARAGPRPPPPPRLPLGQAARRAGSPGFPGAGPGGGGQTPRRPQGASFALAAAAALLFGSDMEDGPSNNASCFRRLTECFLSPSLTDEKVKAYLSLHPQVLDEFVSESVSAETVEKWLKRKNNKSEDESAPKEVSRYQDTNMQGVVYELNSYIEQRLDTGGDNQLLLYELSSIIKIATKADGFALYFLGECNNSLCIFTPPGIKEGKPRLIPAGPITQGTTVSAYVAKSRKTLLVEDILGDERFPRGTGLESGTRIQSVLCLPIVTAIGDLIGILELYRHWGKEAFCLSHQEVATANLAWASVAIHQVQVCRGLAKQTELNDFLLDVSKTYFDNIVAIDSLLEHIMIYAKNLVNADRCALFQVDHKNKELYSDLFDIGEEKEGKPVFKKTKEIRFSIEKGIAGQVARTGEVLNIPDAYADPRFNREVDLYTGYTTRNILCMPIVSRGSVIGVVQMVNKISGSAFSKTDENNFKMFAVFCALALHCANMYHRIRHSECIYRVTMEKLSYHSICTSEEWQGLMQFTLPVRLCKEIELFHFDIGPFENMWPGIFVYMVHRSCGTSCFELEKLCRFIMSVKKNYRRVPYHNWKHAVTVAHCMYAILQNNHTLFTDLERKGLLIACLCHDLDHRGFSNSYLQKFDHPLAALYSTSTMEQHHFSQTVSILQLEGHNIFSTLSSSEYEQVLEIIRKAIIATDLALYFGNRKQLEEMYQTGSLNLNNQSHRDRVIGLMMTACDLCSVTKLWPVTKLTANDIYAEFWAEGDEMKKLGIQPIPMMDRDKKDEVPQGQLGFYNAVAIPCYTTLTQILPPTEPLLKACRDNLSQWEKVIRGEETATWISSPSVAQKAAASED

Row | SMILES | IC50 [1] | IC50 [2] | IC50 [3] | IC50 [4] | IC50 [5] | IC50 [6] | IC50 [7] | IC50 [8, 13] | ID50 IL-6 [9] | inhibitory dose [ID50] TNF [9] | lavage cell counts, protein concentrations, and lavage cytokine IL-6 and TNF [10] | serum cytokines from H1N1-induced systematic inflammation [10] | signs of tissue injury (H&E, lung) [10] | survival of mice infected with H1N1 [10] | severity of tissue injury [11] | overt signs of distress in treated animals [11] | times weaker in activity toward PDE4 compared with compound 6 ([1]; in vitro) | IC50 ([8]; RAW264.7, range over both cell types) | serum TNF and IL-6 after 18 h lead time ([9]; 1 mg/kg i.p. 18 h before LPS 100 ug i.p.) | IC50 [12]
1 | COc1ccc(C2OCC3(O)C(c4ccc(OC)c(OC)c4)OCC23)cc1OC (stereo not drawn) [Compound 6] | 90 nM | > 100 µM | 80 µM | > 100 µM | > 100 µM | 400 nM | 90 nM | 25 to 400 nM | 0.1∼1 mg/kg | 0.01∼1 mg/kg | decreased | significantly reduced | able to lessen signs of tissue injury | significantly improved the survival | lessen severity of tissue injury | none of the animals treated with the agents exhibited overt signs of distress | – | – | – | –
2 | COc1ccc([C@@H]2OC[C@H]3[C@@H]2CO[C@@H]3c2ccc(O[C@@H]3O[C@H](CO)[C@@H](O)[C@H](O)[C@H]3O)c(OC)c2)cc1OC [Compound 7, Forsythin] | 8000 nM | > 100 µM | > 100 µM | > 100 µM | > 100 µM | 8000 nM | 10000 nM | – | 0.1∼1 mg/kg | 0.01∼1 mg/kg | decreased | significantly reduced | able to lessen signs of tissue injury | significantly improved the survival | lessen severity of tissue injury | none of the animals treated with the agents exhibited overt signs of distress | > 80 times | 8000 to 10000 nM | – | –
3 | COc1cccc(CN2N=NC3C(=O)N(c4ccc(OC)c(OC)c4)C(=O)C32)c1 (stereo not drawn) [Compound 9] | 60 nM | > 100 µM | > 100 µM | > 100 µM | > 100 µM | 100 nM | 80 nM | 25 to 400 nM | 0.1∼1 mg/kg | 0.01∼1 mg/kg | decreased | significantly reduced | able to lessen signs of tissue injury | significantly improved the survival | lessen severity of tissue injury | none of the animals treated with the agents exhibited overt signs of distress | – | – | excellent efficacy reducing both serum TNF and IL-6 cytokines | –
4 | COc1ccc(N2C(=O)C3N=NN(CC(=O)Nc4cc(C)cc(C)c4)C3C2=O)cc1OC (stereo not drawn) [Compound 13] | 10 nM | > 100 µM | 90 µM | > 100 µM | > 100 µM | 70 nM | 25 nM | 25 to 400 nM | – | – | decreased | significantly reduced | able to lessen signs of tissue injury | significantly improved the survival | lessen severity of tissue injury | none of the animals treated with the agents exhibited overt signs of distress | – | – | – | –
5 | COc1ccc([C@@H]2CC(=O)c3c(O)cc(O)cc3O2)cc1O [Hesperetin] | – | – | – | – | – | – | – | – | – | – | – | – | – | – | – | – | – | – | – | 10 to 100 µM
6 | COc1cc(O)c2c(=O)c(-c3ccc(O)cc3)coc2c1 [prunetin] | – | – | – | – | – | – | – | – | – | – | – | – | – | – | – | – | – | – | – | 10 to 100 µM

From paper PMC4280171, “Novel PDE4 Inhibitors Derived from Chinese Medicine Forsythia” (PLoS ONE, 2014)
